pIC50: −log10 of the molar value. Structures can show the parent of a compound that is named as a salt. Where two headings read alike, the source gives them in different places.
What was measured:
[1] = test system: CYP3A4 activity in HepaRG cells; conditions: 48 h
[2] = test system: CYP1A2 activity in HepaRG cells; assay: CYP1A2 enzyme activity in differentiated HepaRG monolayers; assay type: cell-based, human; conditions: HepaRG, 48 h
human recombinant CYP1A2 = biological target: T1, human recombinant CYP1A2 (Homo sapiens, UniProt P05177); assay: Human recombinant CYP1A2 Supersome inhibition assay; assay type: biochemical
T1 sequence (P05177 1-516): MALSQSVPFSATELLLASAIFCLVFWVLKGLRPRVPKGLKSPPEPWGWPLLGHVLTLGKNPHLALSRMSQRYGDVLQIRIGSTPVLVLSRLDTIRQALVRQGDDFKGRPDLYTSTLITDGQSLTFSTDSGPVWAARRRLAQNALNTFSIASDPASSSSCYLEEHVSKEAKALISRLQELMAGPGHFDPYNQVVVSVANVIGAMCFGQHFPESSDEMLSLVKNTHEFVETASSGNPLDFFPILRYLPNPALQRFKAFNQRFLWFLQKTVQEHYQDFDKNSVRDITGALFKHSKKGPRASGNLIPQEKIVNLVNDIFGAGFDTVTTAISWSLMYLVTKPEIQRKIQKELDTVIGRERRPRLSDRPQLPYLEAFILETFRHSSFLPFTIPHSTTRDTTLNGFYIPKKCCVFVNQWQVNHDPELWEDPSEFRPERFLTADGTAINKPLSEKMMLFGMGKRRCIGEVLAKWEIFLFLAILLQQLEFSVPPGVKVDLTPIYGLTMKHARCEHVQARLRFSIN

human recombinant CYP3A4 = human recombinant CYP3A4 (Homo sapiens, UniProt P08684); assay: Human recombinant CYP3A4 Supersome inhibition assay; assay type: biochemical
[3] = biological target: human recombinant CYP2C19 (Homo sapiens, UniProt P33261); assay: Human recombinant CYP2C19 Supersome inhibition assay; assay type: biochemical
human recombinant CYP2E1 = human recombinant CYP2E1 (Homo sapiens, UniProt P05181); assay: Human recombinant CYP2E1 Supersome inhibition assay; assay type: biochemical
CYP1A2 = CYP1A2 enzyme activity in differentiated HepaRG monolayers; assay type: cell-based, human; conditions: human, differentiated HepaRG cell monolayers, probe luciferin-1A2 (6 µM)
human recombinant CYP2B6 = biological target: T2, human recombinant CYP2B6 (Homo sapiens, UniProt P20813); assay: Human recombinant CYP2B6 Supersome inhibition assay; assay type: biochemical
T2 sequence (P20813 1-491): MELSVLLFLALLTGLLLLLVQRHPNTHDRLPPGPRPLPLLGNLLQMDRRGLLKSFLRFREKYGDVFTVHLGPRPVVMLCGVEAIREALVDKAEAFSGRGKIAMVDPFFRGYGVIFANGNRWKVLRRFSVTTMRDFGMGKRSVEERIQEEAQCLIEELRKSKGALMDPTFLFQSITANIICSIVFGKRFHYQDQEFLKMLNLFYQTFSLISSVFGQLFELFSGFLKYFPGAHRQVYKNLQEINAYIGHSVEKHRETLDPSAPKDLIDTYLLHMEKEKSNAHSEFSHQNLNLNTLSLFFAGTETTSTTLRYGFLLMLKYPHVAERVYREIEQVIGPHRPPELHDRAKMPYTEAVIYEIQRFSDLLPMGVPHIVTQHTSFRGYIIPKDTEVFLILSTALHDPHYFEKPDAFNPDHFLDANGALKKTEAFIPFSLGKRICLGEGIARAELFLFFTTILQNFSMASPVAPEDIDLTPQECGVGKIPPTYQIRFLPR

[4] = humans, estimated average; ref Olsen et al. 2007; cited from earlier work
[5] = 1 nM PFAS in binary mixture with 10 µM rifampicin
[6] = 1 µM PFAS in binary mixture with 10 µM rifampicin
[7] = 1 nM PFAS in binary mixture with 10 µM BaP
[8] = 1 µM PFAS in binary mixture with 10 µM BaP

human recombinant CYP3A4, sequence (P08684 whole entry): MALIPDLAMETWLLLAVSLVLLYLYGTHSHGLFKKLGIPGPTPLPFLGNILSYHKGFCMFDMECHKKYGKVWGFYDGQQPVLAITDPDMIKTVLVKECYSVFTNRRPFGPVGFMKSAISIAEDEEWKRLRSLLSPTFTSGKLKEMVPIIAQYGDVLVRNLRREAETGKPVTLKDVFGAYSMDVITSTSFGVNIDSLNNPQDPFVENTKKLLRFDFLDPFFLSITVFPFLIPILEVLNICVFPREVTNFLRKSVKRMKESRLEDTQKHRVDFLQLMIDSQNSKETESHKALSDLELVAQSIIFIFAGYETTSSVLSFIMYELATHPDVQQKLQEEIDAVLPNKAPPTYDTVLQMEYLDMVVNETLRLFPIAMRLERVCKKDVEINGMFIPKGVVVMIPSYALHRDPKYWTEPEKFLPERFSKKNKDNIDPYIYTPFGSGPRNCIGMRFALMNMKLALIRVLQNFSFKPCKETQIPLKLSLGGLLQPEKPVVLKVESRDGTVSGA
human recombinant CYP2E1, sequence (P05181 whole entry): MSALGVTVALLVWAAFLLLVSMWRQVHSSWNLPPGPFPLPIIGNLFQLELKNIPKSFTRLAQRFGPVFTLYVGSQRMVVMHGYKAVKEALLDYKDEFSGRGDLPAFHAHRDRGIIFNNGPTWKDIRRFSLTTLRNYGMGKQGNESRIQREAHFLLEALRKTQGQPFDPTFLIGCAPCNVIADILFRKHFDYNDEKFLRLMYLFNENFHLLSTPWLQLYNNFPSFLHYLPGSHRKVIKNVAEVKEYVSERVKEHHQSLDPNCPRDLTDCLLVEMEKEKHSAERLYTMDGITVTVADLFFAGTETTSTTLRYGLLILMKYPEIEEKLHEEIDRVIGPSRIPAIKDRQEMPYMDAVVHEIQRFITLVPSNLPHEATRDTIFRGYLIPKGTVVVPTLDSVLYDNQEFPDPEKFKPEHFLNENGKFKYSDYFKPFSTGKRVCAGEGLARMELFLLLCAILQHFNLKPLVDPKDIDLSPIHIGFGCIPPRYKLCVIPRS
human recombinant CYP2C19, sequence (P33261 whole entry): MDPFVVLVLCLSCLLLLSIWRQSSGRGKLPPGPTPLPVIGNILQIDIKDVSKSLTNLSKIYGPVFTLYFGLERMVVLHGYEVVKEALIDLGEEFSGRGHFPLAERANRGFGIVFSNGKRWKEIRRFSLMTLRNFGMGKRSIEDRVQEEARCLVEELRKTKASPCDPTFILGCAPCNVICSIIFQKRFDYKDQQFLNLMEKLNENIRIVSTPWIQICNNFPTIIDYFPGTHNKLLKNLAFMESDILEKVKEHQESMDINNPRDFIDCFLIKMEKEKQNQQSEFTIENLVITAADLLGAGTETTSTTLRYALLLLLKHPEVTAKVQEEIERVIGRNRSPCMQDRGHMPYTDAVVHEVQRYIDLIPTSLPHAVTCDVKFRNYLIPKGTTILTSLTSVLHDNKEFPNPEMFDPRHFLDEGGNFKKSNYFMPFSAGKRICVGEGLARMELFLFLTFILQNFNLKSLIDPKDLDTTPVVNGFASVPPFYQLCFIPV

CYP3A4 activity (% of the solvent control) ([1]; 1 nM PFAS alone) | CYP3A4 activity (% of the solvent control) ([1]; 1 µM PFAS alone) | Structure (SMILES) | CYP3A4 activity (% of the solvent control) [1, 5] | CYP3A4 activity (% of the solvent control) [1, 6] | CYP1A2 activity (% of the solvent control) ([2]; 1 nM PFAS alone) | CYP1A2 activity (% of the solvent control) [2, 7] | CYP1A2 activity (% of the solvent control) ([2]; 1 µM PFAS alone) | CYP1A2 activity (% of the solvent control) [2, 8] | pIC50 (human recombinant CYP1A2) | pIC50 (human recombinant CYP3A4) | pIC50 [3] | pIC50 (human recombinant CYP2E1) | activity at 48 h, 1 nM (CYP1A2) | activity at 48 h, 1 µM (CYP1A2) | pIC50 (human recombinant CYP2B6) | half-life of serum elimination [4]
no statistically significant differences | no statistically significant differences | OCCC(F)(F)C(F)(F)C(F)(F)C(F)(F)C(F)(F)C(F)(F)F [6:2 FTOH, 6:2 Fluorotelomer alcohol] | not statistically different from the inducer nor the solvent control | not statistically different from the inducer nor the solvent control | 168.4% | lower | 148.4% | lower | – | – | – | – | – | – | – | –
– | – | O=C(O)C(F)(OC(F)(F)C(F)(F)C(F)(F)F)C(F)(F)F (centres unmarked) [HFPO-DA, Undecafluoro-2-methyl-3-oxahexanoic acid] | did not influence the CYP3A4 activity | did not influence the CYP3A4 activity | neither concentration of HFPO-DA nor PFHxS had a significant effect | decreased activity | neither concentration of HFPO-DA nor PFHxS had a significant effect | decreased activity | – | – | – | – | – | – | – | –
– | – | O=S(=O)(O)C(F)(F)C(F)(F)C(F)(F)C(F)(F)F [PFBS, Perfluorobutanesulfonic acid] | concentration-dependent decrease | – | 205.4% | 130.9% | 204.4% | 128.5% | – | – | – | – | – | – | – | –
– | – | O=C(O)C(F)(F)C(F)(F)C(F)(F)C(F)(F)C(F)(F)F [PFHxA, Perfluorohexanoic acid] | – | not in those exposed to the higher (1 µM) concentrations | increased CYP1A2 activity | no significant differences | increased CYP1A2 activity | no significant differences | – | – | – | – | – | – | – | –
– | – | O=S(=O)(O)C(F)(F)C(F)(F)C(F)(F)C(F)(F)C(F)(F)C(F)(F)F [PFHxS, Perfluorohexanesulfonic acid potassium salt] | significantly lower relative to rifampicin alone | significantly lower relative to rifampicin alone | no significant differences | – | no significant differences | – | 4.86 | < 4.00 | 4.29 | < 4.00 | 80.2% | 122% | < 4.00 | –
– | – | O=C(O)C(F)(F)C(F)(F)C(F)(F)C(F)(F)C(F)(F)C(F)(F)C(F)(F)F [PFOA, Perfluorooctanoic acid] | – | – | – | – | – | – | < 4.00 | < 4.00 | < 4.00 | < 4.00 | – | – | 4.01 | 3.5 years
